In BindingDB's records for doi:10.1016/j.bmcl.2009.05.029 (Institute, 2009):

Experiment: Inhibition of EphB2

Row | EC50 | Structure (SMILES)
1 | 40 nM | Cc1ccc(C(=O)Nc2cccc(C(F)(F)F)c2)cc1Nc1cncc(C(N)=O)c1 [5-[(2-methyl-5-{[3-(trifluoromethyl)phenyl]carbamoyl}phenyl)amino]pyridine-3-carboxamide]
2 | 40 nM | Cc1cn(-c2cc(NC(=O)c3ccc(C)c(NC(=O)c4ccno4)c3)cc(C(F)(F)F)c2)cn1 [N-(2-methyl-5-(3-(4-methyl-1H-imidazol-1-yl)-5-(trifluoromethyl)phenylcarbamoyl)phenyl)isoxazole-5-carboxamide]
